The source of these data is patent US20070015725A1, “2-azapurine compounds and their uses” (Roche Diagnostics, GMBH, priority 1999, published 2007).

As usually defined, the Tm is the temperature at which the thermal transition is half complete. Broadly, the melting point is the temperature, or range, at which the solid turns liquid.

In data set [1] the test system is oligonucleotide duplexes. In words: Tm values and thermodynamic parameters of duplex formation (absorbance vs. temperature melting curves). The format is binding. Particulars: for Tm / ΔG / ΔH / ΔS: 10 mM Na-cacodylate, 100 mM NaCl, 10 mM MgCl2, pH 7; for Tm: 5 μM single strand concentration; for ΔG: duplex formation (ΔG°298); for ΔG / ΔH / ΔS: 5 μM single strand, MeltWin 3.0; for ΔH / ΔS: duplex formation. The protocol:
Determination of melting curves and thermodynamics: Absorbance vs. temperature profiles were measured on Cary 1 or 1E spectrophotometers (Varian, Australia) with a Cary thermoelectrical controller. […] 3.0. Circular dichroism (CD) spectra were recorded on a Jasco 600 (Jasco, Japan) spectropolarimeter, a thermostatically controlled bath (Lauda RCS-6) in a 1-cm cuvette.

Data set [2] concerns natural nucleobases. To be noted: cited from earlier work.

In the oligonucleotide strings, read from the 5' end, every base follows the letter of its sugar. An asterisk marks phosphorothioate; unmarked linkages are phosphodiester. Other units and linkages are bracketed, terminal groups are in braces. A string of capitals states the bases alone. [z2A] = 2-aza-2'-deoxyadenosine; d = 2'-deoxy (DNA)

Turning to “5′-d(TAGGTC66TACT) 3′-d(ATCCAGGGATGA): duplex SEQ ID NO: 5 with SEQ ID NO: 8; 6: z^2Ad; two z^2Ad-dG pairs (chain 1 TAGGTCNNTACT; z2Ad modified nucleosides; modified_base (7)..(8) n = 2-Aza 2′-deoxyadenosine)”, in data set [1], the midpoint of thermal melting (Tm) came out at 46 °C, the ΔG is -10.1 kcal/mol, the ΔH was -74 kcal/mol and the ΔS is −206 cal/K mol.
On to `CCCCN(C=Nc1nnnc2c1ncn2[C@H]1C[C@H](O)[C@@H](CO)O1)CCCC` [Compound 9c, 7-(2-Deoxy-β-D-erythro-pentofuranosyl)-4-{[(di-n-butylamino)methylidene]-amino}-7H-imidazo[4,5-d][1,2,3]-triazine], for which the melting point is 107 to 109 °C.
Take “5′-d(TAGGTC6ATACT) 3′-d(ATCCAGTTATGA): duplex SEQ ID NO: 3 with SEQ ID NO: 2; 6: z^2Ad; one z^2Ad-dT pair (chain 1 TAGGTCAATACT; chain 1: DNA, [z2A] at 7, backbone not given here; chain 2: unmodified DNA)”: in data set [1], the Tm turned out to be 42 °C, the ΔG was -9.2 kcal/mol, the ΔH was -85 kcal/mol and the ΔS was −245 cal/K mol.
Regarding `OC[C@H]1O[C@@H](N2CNc3c2nnn2ccnc32)C[C@@H]1O` [Compound 7, 3-(2-Deoxy-β-D-erythro-pentofuranosyl)-1H-diimidazo[1,2-c:4′,5′-e][1,2,3]-triazine], the melting point is 151 to 152 °C (dec.).
Regarding “5′-d(TAGGTCAATACT) 3′-d(ATCCAGGGATGA): unmodified duplex SEQ ID NO: 1 with SEQ ID NO: 8; two dA-dG mismatches (unmodified DNA) [reference compound]”, in data set [1], the melting temperature (Tm) was 36 °C, the ΔG was -7.4 kcal/mol, the ΔH is -47 kcal/mol and the ΔS is on record as −127 cal/K mol.
For “5′-d(TAGGTC66TACT) 3′-d(ATCCAGAAATGA): duplex SEQ ID NO: 5 with SEQ ID NO: 6; 6: z^2Ad; two z^2Ad-dA pairs (chain 1 TAGGTCNNTACT; z2Ad modified nucleosides; modified_base (7)..(8) n = 2-Aza 2′-deoxyadenosine)”, in data set [1], the midpoint of thermal melting (Tm) came out at 25 °C, the ΔG was -5.7 kcal/mol, the ΔH was -49 kcal/mol and the ΔS was −141 cal/K mol.
In the case of `O=c1[nH]nnc2c1ncn2[C@H]1C[C@H](O)[C@@H](CO)O1` [Compound 3, 7-(2-deoxy-β-D-erythro-pentofuranosyl)-7H-imidazo[4,5-d][1,2,3]-triazin-4-one], in data set [2], the “stability of the base pair I^Az/G, less than the base pair A/T” value is listed as 9 ° and the “stability of the base pair I^Az/G, less than the regular base pair C/G” value is 13 °.
Take `CC(C)CN(C=Nc1nnnc2c1ncn2[C@H]1C[C@H](O)[C@@H](CO)O1)CC(C)C` [Compound 9b, 7-(2-Deoxy-β-D-erythro-pentofuranosyl)-4-{[(di-isobutylamino)methylidene]-amino}-7H-imidazo[4,5-d][1,2,3]-triazine]: the melting point was 138 to 140 °C.
Consider “5′-d(TAGGTC66TACT) 3′-d(ATCCAGTTATGA): duplex SEQ ID NO: 5 with SEQ ID NO: 2; 6: z^2Ad; two z^2Ad-dT pairs (chain 1 dTdAdGdGdTdCd[z2A]d[z2A]dTdAdCdT; chain 2: unmodified DNA)”, for which, in data set [1], the Tm was 37 °C, the ΔG was -7.7 kcal/mol, the ΔH was -76 kcal/mol and the ΔS was −219 cal/K mol.
On the same counts, the results for “5′-d(TAGGTC66TACT) 3′-d(ATCCAGCCATGA): duplex SEQ ID NO: 5 with SEQ ID NO: 7; 6: z^2Ad; two z^2Ad-dC pairs (chain 1 TAGGTCNNTACT; z2Ad modified nucleosides; modified_base (7)..(8) n = 2-Aza 2′-deoxyadenosine)” are 20 °C, -5.5 kcal/mol, -41 kcal/mol and −113 cal/K mol.
Regarding “5′-d(TAGGTC6ATACT) 3′-d(ATCCAGGTATGA): duplex SEQ ID NO: 3 with SEQ ID NO: 4; 6: z^2Ad; one z^2Ad-dG pair (chain 1 dTdAdGdGdTdCd[z2A]dAdTdAdCdT; chain 2: unmodified DNA)”, in data set [1], the Tm amounted to 46 °C, the ΔG was -9.9 kcal/mol, the ΔH is -83 kcal/mol and the ΔS is on record as −236 cal/K mol.
With “5′-d(TAGGTCGGTACT) 3′-d(ATCCAGCCATGA): unmodified duplex SEQ ID NO: 9 with SEQ ID NO: 7; two G-C pairs (listed as DNA, chemistry not fully specified; one strand is listed 3' to 5') [reference compound]”, the Tm in data set [1] came to 54 °C.
Consider “5′-d(TAGGTCAATACT) 3′-d(ATCCAGTTATGA): unmodified standard duplex, SEQ ID NO: 1 with SEQ ID NO: 2 (= SEQ ID NO: 10) (listed as DNA, chemistry not fully specified; one strand is listed 3' to 5') [reference compound]”, for which, in data set [1], the Tm was 46 °C, the ΔG was -10.4 kcal/mol, the ΔH was -82 kcal/mol and the ΔS is −230 cal/K mol. In data set [1] (listed as 5′-d(TAGGTCAATACT) 5′-d(AGTATTGACCTA)), the Tm turned out to be 47 °C.
With `Nc1nnnc2c1ncn2[C@H]1C[C@H](O)[C@@H](CO)O1` [Compound 2, 4-Amino-7-(2-deoxy-β-D-erythro-pentofuranosyl)-7H-imidazo[4,5-d][1,2,3]-triazine], in data set [1], the “base pairing with 2′-deoxyguanosine (dG)” value is recorded as “specifically stable base pairs”; the “base pairing with dT, dC and dA” value was “much less stable base pairs”.
